The results in this text go back to ChEMBL document CHEMBL5029163, “Enhancing the Pharmacokinetic Profile of Interleukin 2 through Site-Specific Conjugation to a Selective Small-Molecule Transthyretin Ligand” (J Med Chem, 2021).

Each structure is given as a SMILES string. Active and inactive are the calls of the source. No cut-off for these calls is given here.

The target of experiment [1] is T1, Transthyretin (Homo sapiens, UniProt P02766). Kind of experiment: Binding affinity to human TTR assessed as binding constant in PBS buffer at pH 7.4 measured after 20 mins fluorescence polarization assay. In general terms: In fluorescence polarisation assays a small probe gives low polarisation when free and higher when bound to something large.
Experiment [2] deals with T1, Transthyretin. Put plainly: Binding affinity to human TTR in human serum assessed as target occupancy at 10 uM measured every 15 mins for 6 hrs by fluorescent probe exclusion selectivity assay. It is filed as cell-free.
The target of experiment [3] is Interleukin-2 (Homo sapiens) (UniProt P60568). Kind of experiment: Induction of stability of human recombinant interleukin 2 assessed as binding affinity to human TTR in human serum by measuring target occupancy at 10 uM measured every 15 mins for 6 hrs by fluorescent probe exclusion selectivity assay. It counts as cell-free.
Experiment [4] has the same target. Put plainly: Induction of stability of human recombinant interleukin 2 assessed as half life in Sprague-Dawley rat plasma at 0.8 mg/kg, iv measured up to 24 hrs by ELISA (Rvb= 1.26+/-0.18 hrs). It counts as organism-based. The following applies: time hrs <=24.
Experiment [5] has the same target. Kind of experiment: Induction of stability of human recombinant interleukin 2 assessed as mean residence time in Sprague-Dawley rat at 0.8 mg/kg, iv measured up to 24 hrs by ELISA (Rvb= 1.04+/-0.07 hrs). It is filed as organism-based. The following applies: time hrs <=24.
Experiment [6] shares this target. Put plainly: Induction of stability of human recombinant interleukin 2 assessed as effect on mouse CTLL-2 cell proliferation in presence of TTR measured after 48 hrs by WST-1 assay. A general note: Tetrazolium assays rely on reduction of a dye to a coloured formazan, in cell work by metabolically active cells.

Chain of Interleukin-2 (Homo sapiens) (P60568 whole entry): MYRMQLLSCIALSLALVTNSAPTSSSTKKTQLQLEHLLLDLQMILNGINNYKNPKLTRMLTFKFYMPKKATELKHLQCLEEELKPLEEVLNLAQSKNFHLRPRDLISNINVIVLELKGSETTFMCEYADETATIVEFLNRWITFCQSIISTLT

Usually Kd stands for the concentration at which binding is half-saturated. For the compound `Cc1n[nH]c(C)c1CCCOc1cc(OCCCc2cn(CCOCCOCCOCCOCCNC(=O)C3CCC(CN4C(=O)C=CC4=O)CC3)nn2)cc(C(=O)O)c1` (stereo unspecified), the dissociation constant Kd at Transthyretin [1] came out at 516 nM. Moreover, the Occ worked out at 51.8% at Transthyretin [2] and 52.6% in experiment [3]. In addition, the T1/2 in experiment [4] came out at 5.22 h. Further, in experiment [5], the MRT is 8.76 h. Also, in experiment [6], the outcome was inactive.
